Source: patent US10882860B2, “Treatment of osteoarthritis” (Samumed, LLC, priority 2015, dated 2021)
Where two headings read alike, the source gives them in different places. Marks after values point to notes of the source that are not given here.

Experiments:
[1] = Competitive slurry experiments between polymorph forms (thermodynamic stability); format: physicochemical; details: competitive slurry of mixed forms
Description: In order to find out the thermodynamic stability between the different forms, several competitive slurry experiments were carried out. Form 1, Form 2, Form 2*, Form 3, Form 4, Form 4*, Form 4**, Form 5, Form 7, Form 8, Form 9, Form 10, Form 11, Form 11*, and Form 13 (10 mg for each) was mixed and slurried in 2 mL of solvent at both RT and 50° C. The solids were slurried for 3-5 days and then analyzed by XRD.
In order to find out the thermodynamic stability between Form 13 and Form 9, several competitive slurry experiments were carried out. 15 mg of Form 1, Form 9 and Form 13 solid were mixed in 1 mL of toluene, IPAc, and n-butyl acetate, and slurried for 3 days at RT and 50° C.
The residual solid was analyzed by XRD.

[2] = tested on: Wnt activity (Sp5-Luc reporter, SW480 colon carcinoma cells); experiment: Sp5-Luc Wnt reporter gene assay; format: cell-based; details: Homo sapiens, FIG. 14
From the text: The compound of Formula (I) was screened for Wnt activity. The screening assay is described as follows. Reporter cell lines were generated by stably transducing cancer cell lines (e.g., colon cancer) or primary cells (e.g., IEC-6 intestinal cells) with a lentiviral construct that included a Wnt-responsive promoter driving expression of the firefly luciferase gene.
SW480 colon carcinoma cells were transduced with a lentiviral vector expressing luciferase with a human Sp5 promoter consisting of a sequence of eight TCF/LEF binding sites. SW480 cells stably expressing the Sp5-Luc reporter gene and a hygromycin resistant gene were selected by treatment with 150 μg/mL of hygromycin for 7 days. These stably transduced SW480 cells were expanded in cell culture and used for all further screening activities. […] Following incubation, 20 μL of BrightGlo luminescence reagent (Promega) was added to each well of the 384-well assay plates. The plates were placed on an orbital shaker for 2 min and then luminescence was quantified using the Envision (Perkin Elmer) plate reader. Readings were normalized to DMSO-only treated cells, and normalized activities were utilized for EC50 calculations using the dose-response log (inhibitor) vs. response—variable slope (four parameters) nonlinear regression feature available in GraphPad Prism 5.0 (or Dotmatics).

[3] = Dog pharmacokinetics after IA injection (plasma, cartilage, bone, synovial fluid); format: in vivo, beagle dogs; details: for % Recovered / Compound of Formula (I) Concentration, Bone / Compound of Formula (I) Concentration, Cartilage / Total Amount Recovered / concentration at 45 day / concentration at 91 day / concentration at 179 day: dogs, IA suspension
Description: In rats and dogs, the pharmacokinetic profile, safety profile, tissue distribution and cartilage regeneration following a single intra-articular (IA) injection of the compound of Formula (I) in the plasma and the knee joint (cartilage and bone) was determined. The compound of Formula (I) (Form 1) was formulated as a suspension composition in 0.5% CMC/0.05% Polysorbate 80 in PBS.
A 350 μL suspension of the compound of Formula (I) (Form 1), formulated as described above, and corresponding to 3 and 30 μg/knee, was injected intra-articularly (IA) into the right and left knees of twelve (12) naïve male beagle dogs. On Day 1, blood was collected at 15 minutes immediately after IA injection and on Days 45, 91 and 179, dogs were sacrificed and blood samples and the knee joints were collected. Plasma and tissue concentrations (bone, cartilage and synovial fluid) were determined using the HPLC-MS/MS bioanalytical method with a dynamic range of […] in plasma or 5.00 to […] in tissue.

[4] = dog, up to 30 μg/knee, 179 days

## CC(C)CC(=O)Nc1cncc(-c2ccc3[nH]nc(-c4nc5c(-c6cccc(F)c6)cncc5[nH]4)c3c2)c1 [compound of Formula (I)]
[1]; Acetone, 50° C.
  Form after 3 days; dry: Form 2*/Form 2*
  Form after 3 days; wet: Form 2*/Form 2*
  Form after 5 days; dry: Form 2*/Form 2*
  Form after 5 days; wet: Form 2*/Form 2*
[1]; Acetone, RT
  Form after 3 days; dry: Form 2*/Form 2*
  Form after 3 days; wet: Form 2*/Form 2*
  Form after 5 days; dry: Form 2*/Form 2*
  Form after 5 days; wet: Form 2*/Form 2*
[1]; EA, 50° C.
  Form after 3 days; dry: Form 4/Form 4
  Form after 3 days; wet: Form 4/Form 4
  Form after 5 days; dry: Form 4*/Form 4*
  Form after 5 days; wet: Form 4*/Form 4*
[1]; EA, RT
  Form after 3 days; dry: Form 4/Form 4
  Form after 3 days; wet: Form 4/Form 4
  Form after 5 days; dry: Form 4/Form 4
  Form after 5 days; wet: Form 4/Form 4
[1]; EtOH, 50° C.
  Form after 3 days; dry: Form 2*/Form 2*
  Form after 3 days; wet: Form 2*/Form 2*
  Form after 5 days; dry: Form 2*/Form 2*
  Form after 5 days; wet: Form 2*/Form 2*
[1]; EtOH, RT
  Form after 3 days; dry: Form 2*/Form 2*
  Form after 3 days; wet: Form 2*/Form 2*
  Form after 5 days; dry: Form 2*/Form 2*
  Form after 5 days; wet: Form 2*/Form 2*
[1]; MeOH, 50° C.
  Form after 3 days; dry: Form 2*/Form 2*
  Form after 3 days; wet: Form 2*/Form 2*
  Form after 5 days; dry: Form 2*/Form 2*
  Form after 5 days; wet: Form 2*/Form 2*
[1]; MeOH, RT
  Form after 3 days; dry: Form 2*/Form 2*
  Form after 3 days; wet: Form 2*/Form 2*
  Form after 5 days; dry: Form 2*/Form 2*
  Form after 5 days; wet: Form 2*/Form 2*
[1]; water, 50° C.
  Form after 3 days; dry: Form 13/Form 13
  Form after 3 days; wet: Form 13/Form 13
  Form after 5 days; dry: Form 13/Form 13
  Form after 5 days; wet: Form 13/Form 13
[1]; water, RT
  Form after 3 days; dry: Form 13/Form 13
  Form after 3 days; wet: Form 13/Form 13
  Form after 5 days; dry: Form l & Form 13
  Form after 5 days; wet: Form 13
[2]
  EC50: 2 nM
[3]; dog, 3 μg/knee, Day 45
  % of administered dose recovered: 5.1%
  total amount recovered from cartilage and bone tissues from the tibia: 152 ng
[3]; dog, 3 μg/knee, Day 91
  % of administered dose recovered: 0.55%
  total amount recovered from cartilage and bone tissues from the tibia: 16.6 ng
[3]; dog, 3 μg/knee, Day 179
  % of administered dose recovered: 2.5%
  total amount recovered from cartilage and bone tissues from the tibia: 79 ng
[3]; dog, 30 μg/knee, Day 45
  % of administered dose recovered: 16.8%
  total amount recovered from cartilage and bone tissues from the tibia: 5060 ng
[3]; dog, 30 μg/knee, Day 91
  % of administered dose recovered: 7.25%
  total amount recovered from cartilage and bone tissues from the tibia: 2250 ng
[3]; dog, 30 μg/knee, Day 179
  % of administered dose recovered: 7.03%
  total amount recovered from cartilage and bone tissues from the tibia: 2110 ng
[3]; dog, up to 30 μg/knee, 15 minutes post-dose
  systemic exposure: no measurable systemic exposure
[3]; [4]
  adverse effects from intra-articular administration: no adverse effects
  mortality: no mortality
[3]; 3 μg/knee, Day 45
  % Recovered: 5.1%
  Compound of Formula (I) Concentration, Bone: [22] nM
  Compound of Formula (I) Concentration, Cartilage: [301] nM
  Total Amount Recovered: 152 ng
[3]; 3 μg/knee, Day 91
  % Recovered: 0.55%
  Compound of Formula (I) Concentration, Bone: BQL
  Compound of Formula (I) Concentration, Cartilage: [73] nM
  Total Amount Recovered: 16.6 ng
[3]; 3 μg/knee, Day 179
  % Recovered: 2.6%
  Compound of Formula (I) Concentration, Bone: 12.8 ng/g and [25] nM
  Compound of Formula (I) Concentration, Cartilage: 63.7 ng/g and [126] nM
  Total Amount Recovered: 79.0 ng
[3]; 30 μg/knee, Day 45
  % Recovered: 16.9%
  Compound of Formula (I) Concentration, Bone: [1160] nM
  Compound of Formula (I) Concentration, Cartilage: [8960] nM
  Total Amount Recovered: 5057 ng
[3]; 30 μg/knee, Day 91
  % Recovered: 7.4%
  Compound of Formula (I) Concentration, Bone: [234] nM
  Compound of Formula (I) Concentration, Cartilage: [4609] nM
  Total Amount Recovered: 2175 ng
[3]; 30 μg/knee, Day 179
  % Recovered: 7.0%
  Compound of Formula (I) Concentration, Bone: [2289] nM
  Compound of Formula (I) Concentration, Cartilage: [228] nM
  Total Amount Recovered: 2109 ng
[3]; male, beagle, dog, bone, other: intra-articular, 3 μg/knee, Day 45, read-out: Compound of Formula (I) Concentration, Bone
  concentration at 45 day: 11.2 ng/g
[3]; male, beagle, dog, bone, other: intra-articular, 30 μg/knee, Day 45, read-out: Compound of Formula (I) Concentration, Bone
  concentration at 45 day: 586 ng/g
[3]; male, beagle, dog, bone, other: intra-articular, 30 μg/knee, Day 91, read-out: Compound of Formula (I) Concentration, Bone
  concentration at 91 day: 118 ng/g
[3]; male, beagle, dog, bone, other: intra-articular, 30 μg/knee, Day 179, read-out: Compound of Formula (I) Concentration, Bone
  concentration at 179 day: 1160 ng/g
[3]; male, beagle, dog, cartilage, other: intra-articular, 3 μg/knee, Day 45, read-out: Compound of Formula (I) Concentration, Cartilage
  concentration at 45 day: 152 ng/g
[3]; male, beagle, dog, cartilage, other: intra-articular, 3 μg/knee, Day 91, read-out: Compound of Formula (I) Concentration, Cartilage
  concentration at 91 day: 37 ng/g
[3]; male, beagle, dog, cartilage, other: intra-articular, 30 μg/knee, Day 45, read-out: Compound of Formula (I) Concentration, Cartilage
  concentration at 45 day: 4520 ng/g
[3]; male, beagle, dog, cartilage, other: intra-articular, 30 μg/knee, Day 91, read-out: Compound of Formula (I) Concentration, Cartilage
  concentration at 91 day: 2330 ng/g
[3]; male, beagle, dog, cartilage, other: intra-articular, 30 μg/knee, Day 179, read-out: Compound of Formula (I) Concentration, Cartilage
  concentration at 179 day: 115 ng/g
[3]; male, beagle, plasma, other: intra-articular, dog, 15 min post-dose, 3 or 30 μg/knee, BQL
  concentration at 15 min: < 2000 ng/mL
